Reference: patent US4351948A, “Imidazole hydrazone derivatives” (priority 1980, dated 1982)
Counter-ions that a name gives are not always drawn. Like-named read-outs stand apart in the source and are kept apart here.

Legend:
platelet aggregation = assay: Platelet aggregation after oral administration in the retired male breeder rat model; assay type: in vivo; conditions: read-out: ED50 (3 hr. post oral administration)
From the text: HC 501 has also been evaluated for platelet aggregation 3 hrs. after oral administration in the retired male breeder rat model (R. N. Saunders et al, Lab. Anim. Sci., 1977, 27, 757).

[1] = system: Trichophyton mentagrophytes; assay: Experimental Trichophyton mentagrophytes infection in guinea pigs; assay type: in vivo
From the text: Effect of oral or topical administration of HC274, HC344, Clotrimazole, and Ketoconazole on experimental Trichophyton mentagrophytes infection in guinea pigs.
*Based on degree of hair loss, erythema, desquamation, Max. = 100
Treatments administered in Carbopol® gel, once daily days 5-10.

C. albicans [2] = assay: Vaginal candida infection in rats, oral or topical treatment; assay type: in vivo
From the text: Effect of oral or topical administration of HC274 and ketoconazole on vaginal candida infection in rats. Clearance of C. albicans from rat vagina following oral or topical treatment (as percentage of control).
Topical treatment: 1% solution in polyethylene glycol administrated twice daily for 3 days.
Oral treatment: Once daily for 3 days.

candida albicans = assay: Oral treatment: recovery of viable candida albicans from the kidneys of infected mice; assay type: in vivo
From the text: Effect of oral treatment with HC274, HC316, HC390, HC415 and Ketoconazole on the recovery of viable candida albicans from the kidneys of infected mice.

C. albicans [3] = assay: Recovery of viable candida cells from the kidneys of infected mice (p.o. and i.v. treatment); assay type: in vivo; conditions: 25 mg/kg 1 h and 24 h after infection
Method: Mice receive 25×10^4 cells of C. albicans i.v. Treatments (25 mg/kg) administered in PEG/Dextrose 1 h and 24 h after infection. Animals sacrified 48 h after infection and kidneys excised, weighed, homogenized and decimal dilutions spread on glucose-peptone agar.

Nocardia asteroides = assay: Anti-bacterial activity, zone diameter; assay type: cell-based; conditions: for zone of inhibition at 50 µg/disc: read-out: Zone diameter given by 50 μg of drug
From the text: (§1) The anti-bacterial activity of the compound HC274 according to the present invention was also compared with the activity of known anti-bacterial agents with the following results: […]

pseudomonas aeruginosa = assay: Anti-bacterial activity, zone diameter; assay type: cell-based; conditions: for zone of inhibition at 50 µg/disc: read-out: Zone diameter given by 50 μg of drug
From the text: as §1

Staphylococcus aureus = assay: Anti-bacterial activity, zone diameter; assay type: cell-based; conditions: for zone of inhibition at 50 µg/disc: read-out: Zone diameter given by 50 μg of drug
From the text: as §1

Nocardia brasiliensis = assay: Anti-bacterial activity, zone diameter; assay type: cell-based; conditions: for zone of inhibition at 50 µg/disc: read-out: Zone diameter given by 50 μg of drug
From the text: as §1

Klebsiella pneumoniac = assay: Anti-bacterial activity, zone diameter; assay type: cell-based; conditions: for zone of inhibition at 50 µg/disc: read-out: Zone diameter given by 50 μg of drug
From the text: as §1

Streptococcus pyrogenes = assay: Anti-bacterial activity, zone diameter; assay type: cell-based; conditions: for zone of inhibition at 50 µg/disc: read-out: Zone diameter given by 50 μg of drug
From the text: as §1

Escherichia coli = assay: Anti-bacterial activity, zone diameter; assay type: cell-based; conditions: for zone of inhibition at 50 µg/disc: read-out: Zone diameter given by 50 μg of drug
From the text: as §1

Proteus vulgaris = assay: Anti-bacterial activity, zone diameter; assay type: cell-based; conditions: for zone of inhibition at 50 µg/disc: read-out: Zone diameter given by 50 μg of drug
From the text: as §1

candida = assay: Intravenous administration: recovery of viable candida cells from the kidneys of infected mice; assay type: in vivo; conditions: 25 mg/ml
[4] = system: platelet thromboxane generation; assay: Inhibition of platelet thromboxane generation (TxB2, collagen-stimulated human platelet rich plasma); assay type: cell-based; conditions: 10 min, collagen 8 μg/ml, human PRP, 10 min. incubation, 37° C., read-out: Activity IC50 (50% inhibition of TxB2 generation)
Method: The compounds used according to the invention as anti-thrombotics were tested by the following method for their ability to inhibit platelet thromboxane generation.
Human venous blood was collected from healthy male donors, who had denied any medication in the previous 14 days. Nine volumes of blood were mixed with one volume of 3.24% trisodium citrate. The citrated blood was centrifuged at 160 g for 10 mins. at 22° C. to obtain platelet rich plasma (PRP). The platelets were then counted on a Coulter counter, and the platelet count was adjusted to 200,000 per μl with plasma.
The PRP was then dispensed as aliquots into micro-Eppendorf tubes, maintained at 37° C. in a dry bath. The compounds dissolved either in saline, ethanol, or DMSO were added in duplicate to the PRP aliquots to produce final concentrations of 0.3, 3 and 30 μg/ml. When ethanol and DMSO were used as the vehicle, triplicate controls containing the same percentage of vehicle as the test compounds were made. The final concentration or organic solvent was never more than 0.1%, which in previous experiments had no effect on TxB2 generation.
Following a 10 min. incubation with test compounds or vehicle, collagen was added to produce a final concentration of 8 μg/ml. The tubes were then whirly-mixed for 15 seconds and replaced in the dry bath for a further 10 minutes, controls received saline instead of collagen. The reaction was then stopped by rapid centrifugation, 15,000 g for 3 mins. The plasma was removed and frozen at -29° C. until assayed.
Briefly, 100 μl aliquots, in tricine buffered saline+0.8% gelatin (pH 8.0) of the following were incubated together for 1 hour at 37° C.: thromboxane Tx B2 (plasma extract, spiked plasma extract or standards 20 to 20,000 pg/ml), ^3 H--TxB2 (approximately 15,000 dpm) and anti-TxB2 antiserum (0.5 μg/100 μl). The free and protein bound ^3 H--TxB2 were separated by ammonium sulphate precipitation followed by centrifugation. 300 μl of the supernatant was added to an aqueous scintillation fluid, and the radioactivity present was counted in a liquid scintillation counter. The binding of ^3 H--TxB2 in the absence of added TxB2 was approximately 55%. The least amount of TxB2 to be detected accurately in the plasma was 0.08 ng/ml. Cross reactivity with other prostaglandins is less than 0.005% except PGD2 which is 1%.
Thus plasma samples were assayed to give a rough approximation of TxB2 content. The plasma was then appropriately diluted and assayed in duplicate to give accurate values.
The amount of TxB2 generated by the collagen was calculated by subtracting mean values obtained for the saline stimulated platelets from the mean values obtained from the collagen stimulated platelets. Then the amount of TxB2 generated in the presence of each concentration of compound was expressed as a % control and dose response curves were then constructed to determine the concentration of compound which produced a 50% inhibition.

[5] = oral, 3 hr, retired male breeder rat
[6] = topical, 1% w/w in Carbopol gel once daily days 5-10, day 10 after infection
[7] = topical, 1% w/w in Carbopol gel, day 5 after infection
[8] = topical, 1% solution in polyethylene glycol twice daily for 3 days

O=C1C(CC[S+]([O-])c2ccccc2)C(=O)N(c2ccccc2)N1c1ccccc1 (stereo not drawn) [Sulfinpyrazone]
ED50 (platelet aggregation; [5]): 4.1 mg/kg

CC(=O)Oc1ccccc1C(=O)O [Aspirin, 2(Acetyloxy)benzoic acid]
ED50 (platelet aggregation; Rattus norvegicus, po, 3 h): 7.7 mg/kg

CC(=O)N1CCN(c2ccc(OCC3COC(Cn4ccnc4)(c4ccc(Cl)cc4Cl)O3)cc2)CC1 (stereo not drawn) [Ketoconazole, cis-1-Acetyl-4-[4-[[2-(2,4-dichlorophenyl)-2-(1H-imidazol-1-yl-methyl)-1,3-dioxolan-4-yl]methoxy]piperazine, reference compound]
Disease rating (degree of hair loss, erythema, desquamation, Max. = 100) ([1]; 20 mg/kg p.o., day 5 after infection): 100
Disease rating (degree of hair loss, erythema, desquamation, Max. = 100) ([1]; 20 mg/kg p.o., day 10 after infection): 63.7
Disease rating (degree of hair loss, erythema, desquamation, Max. = 100) [1, 6]: 56.4
Disease rating (degree of hair loss, erythema, desquamation, Max. = 100) [1, 7]: 100
Clearance of C. albicans from rat vagina (as percentage of control) (C. albicans [2]; oral, 10 mg/kg once daily for 3 days): 99.9 percentage of control
Clearance of C. albicans from rat vagina (as percentage of control) (C. albicans [2]; [8]): 99.9 percentage of control
Recovery of C.albicans (as percentage of control) (candida albicans; 5 mg/kg): 51.0 percentage of control
Recovery of C.albicans (as percentage of control) (candida albicans; 20 mg/kg): 11.7 percentage of control

Clc1ccc(/C(Cn2ccnc2)=N/Nc2c(Cl)cccc2Cl)cc1 [HC344, (Z)-1-(4-chlorophenyl)-2-(1H-imidazol-1-yl) ethanone, 2,6-dichlorophenylhydrazone, hydrochloride]
Disease rating (degree of hair loss, erythema, desquamation, Max. = 100) [1, 6]: 24.6
Disease rating (degree of hair loss, erythema, desquamation, Max. = 100) [1, 7]: 100
LD50 at 168 h (in vivo; mouse, in vivo, ip, male mice, 7 day, read-out: LD50): 780 mg/kg
LD12.5 (in vivo; p.o., male mice, 7 day): > 1500 mg/kg

Clc1ccc(COC(Cn2ccnc2)c2ccc(Cl)cc2Cl)c(Cl)c1 (stereo not drawn) [Miconazole, 1-[2-(2,4-Dichlorophenyl)-2-[(2,4-dichlorophenyl)methoxy]ethyl]-1H-imidazole]
LD50 at 168 h (in vivo; mouse, in vivo, iv, male mice, 7 day, read-out: LD50): 80 mg/kg
LD12.5 (in vivo; p.o., male mice, 7 day): > 500 mg/kg
No. of CFU/g kidney at 48 h (C. albicans [3]; i.v.): 9 × 10^2 CFU/g kidney
No. of CFU/g kidney at 48 h (C. albicans [3]; p.o.): 1.4 × 10^3 CFU/g kidney

Clc1ccccc1C(c1ccccc1)(c1ccccc1)n1ccnc1 [Clotrimazole, 1-(2-Chlorophenyl)diphenylmethyl-1H-imidazole, reference compound]
Disease rating (degree of hair loss, erythema, desquamation, Max. = 100) [1, 6]: 51.9
Disease rating (degree of hair loss, erythema, desquamation, Max. = 100) [1, 7]: 100
Clearance of C. albicans from rat vagina (as percentage of control) (C. albicans [2]; [8]): 100 percentage of control
LD50 at 168 h (in vivo; mouse, in vivo, iv): 10 mg/kg
LD12.5 (in vivo; p.o., male mice, 7 day): 500 mg/kg

CCn1cc(C(=O)O)c(=O)c2ccc(C)nc21 [NA, Nalidixic Acid]
zone of inhibition at 50 µg/disc (Nocardia asteroides): 0 mm
zone of inhibition at 50 µg/disc (pseudomonas aeruginosa; Pseudomonas aeruginosa): 7 mm
zone of inhibition at 50 µg/disc (Staphylococcus aureus): 9 mm
zone of inhibition at 50 µg/disc (Nocardia brasiliensis): 7 mm
zone of inhibition at 50 µg/disc (Klebsiella pneumoniac; Klebsiella): 21 mm
zone of inhibition at 50 µg/disc (Streptococcus pyrogenes; Streptococcus): 0 mm
zone of inhibition at 50 µg/disc (Escherichia coli): 18 mm
zone of inhibition at 50 µg/disc (Proteus vulgaris): 25 mm

OCCN(CCO)c1nc(N2CCCCC2)c2nc(N(CCO)CCO)nc(N3CCCCC3)c2n1 [Dipyridamide, 2,2',2",2"',[(4,8Di-1-piperidinyl-pyrimido]5,4d[pyrimidine2,6-diyl)dinitrlo] tetrakisethanol]
ED50 (platelet aggregation; [5]): 6.8 mg/kg

Clc1ccc(C(Cn2ccnc2)OCc2ccsc2Cl)c(Cl)c1 (stereo not drawn) [Tioconazole, 1-[2-[(2-Chloro-3-thienyl)methoxy]-2-(2,4-dichlorophenyl)ethyl]-1H-imidazole]
CFU/g kidney (candida): 8.1 × 10^3 CFU/g kidney
CFU/g kidney, % of control (candida): 55 % of control
LD12.5 (in vivo; mouse, in vivo, po): > 500 mg/kg
No. of CFU/g kidney at 48 h (C. albicans [3]; i.v.): 1.2 × 10^3 CFU/g kidney
No. of CFU/g kidney at 48 h (C. albicans [3]; p.o.): 2.2 × 10^3 CFU/g kidney

Clc1ccc(/C(Cn2ccnc2)=N/Nc2ccccc2Cl)cc1 [HC 501, (Z)-1-(4-chlorophenyl)-2-(1H-imidazol-1-yl)ethanone,2-chlorophenylhydrazone, hydrochloride]
IC50 [4]: < 780 nM
ED50 (platelet aggregation; [5]): 0.003 mg/kg

Cl.Fc1c(F)c(F)c(N/N=C(\Cn2ccnc2)c2ccc(Cl)cc2)c(F)c1F [HC415, (Z)-1-(4-chlorophenyl)-2-(1H-imidazol-1-yl)ethanone, 2,3,4,5,6-pentafluorophenylhydrazone hydrochloride]
Recovery of C.albicans (as percentage of control) (candida albicans; 5 mg/kg): 14.0 percentage of control
Recovery of C.albicans (as percentage of control) (candida albicans; 20 mg/kg): 17.2 percentage of control

CC1(C)S[C@@H]2[C@H](NC(=O)[C@H](N)c3ccccc3)C(=O)N2[C@H]1C(=O)O [AMP, Ampicillin]
zone of inhibition at 50 µg/disc (Nocardia asteroides; 50 μg): 38 mm
zone of inhibition at 50 µg/disc (pseudomonas aeruginosa; 50 μg, pseudomonas aeruginosa): 0 mm
zone of inhibition at 50 µg/disc (Staphylococcus aureus; 50 μg): 21 mm
zone of inhibition at 50 µg/disc (Nocardia brasiliensis; 50 μg): 38 mm
zone of inhibition at 50 µg/disc (Klebsiella pneumoniac; 50 μg, Klebsiella pneumoniac): 11 mm
zone of inhibition at 50 µg/disc (Streptococcus pyrogenes; 50 μg, Streptococcus pyrogenes): 25 mm
zone of inhibition at 50 µg/disc (Escherichia coli; 50 μg): 17 mm
zone of inhibition at 50 µg/disc (Proteus vulgaris; 50 μg): 28 mm

Polymyxin [PM]
Zone diameter given by 50 μg of drug (Nocardia asteroides; 50 μg): 11 MM
Zone diameter given by 50 μg of drug (pseudomonas aeruginosa; 50 μg, pseudomonas aeruginosa): 10 MM
Zone diameter given by 50 μg of drug (Staphylococcus aureus; 50 μg): 7 MM
Zone diameter given by 50 μg of drug (Nocardia brasiliensis; 50 μg): 0 MM
Zone diameter given by 50 μg of drug (Klebsiella pneumoniac; 50 μg, Klebsiella pneumoniac): 10 MM
Zone diameter given by 50 μg of drug (Streptococcus pyrogenes; 50 μg, Streptococcus pyrogenes): 0 MM
Zone diameter given by 50 μg of drug (Escherichia coli; 50 μg): 10 MM
Zone diameter given by 50 μg of drug (Proteus vulgaris; 50 μg): 12 MM
